# Data reported in patent US20040132969A1, “Antibodies, peptides, analogs and uses thereof” (priority 2000, published 2004).
# “Also recorded” adds a separate entry of the source.
# Assays:
# [1] = tested on: FDP induced cell proliferation in the chick CAM; experiment: CAM cell proliferation assay in the presence of FDP; assay type: in vivo
# Protocol: Cell proliferation was measured using the chick chorioallantoic membrane (CAM) model as described previously (4, 29, 30).
# Briefly, on day zero, fertile hens' eggs, are placed in an egg incubator 37.5° C. with pointed ends facing downwards. On day 3, using a 2 ml syringe with a 21G needle, 2 ml of albumen is removed and the eggs returned to the incubator. On day 4, each egg is punctured by a needle at the blunt end into the air space. A square of shell is then removed, causing the egg contents to drop into the space left by collapse of the air space at the end of the egg and the withdrawal of albumen. The volume of the space above the dropped CAM is approximately 7 ml. The square opening in the shell is covered with Sellotape (RTM). The eggs then have to be kept level in the incubator without tilting. On day 10, the surviving eggs are organised into groups of preferably no less than 10. Test and control samples are prepared and each egg receives 0.3 ml of sample injected through the Sellotape (RTM) onto the upper surface of the CAM.
# The technique of removal of each CAM is simple but crucial to the rationale of achieving results expressed as total DPM per CAM. By 20 min, methyl-[^3H]thymidine is incorporated only into the CAM which has been directly exposed. Beyond 30 min, [^3H]thymidine becomes detectable in adjacent CAM that is applied to the shell, via uptake from the bloodstream. Each CAM is removed by holding the egg in the palm of one hand, Sellotape window face down, and piercing the side with pointed scissors well above the level of the dropped CAM. Scissors are used to cut round the shell, and the residual yolk and embryo tipped out into a disposal container once the umbilical vessels connecting the embryo to the CAM are cut. […]
# The assay used is based on quantitative measurement of DNA synthesis in the CAM after exposure to control and test substances 18 h after application in liquid form to the whole “dropped” area of each CAM (4,29). […]
# [2] = tested on: HUVEC and fibroblasts; experiment: BrdU ELISA cell proliferation cytotoxicity assay; assay type: cell-based, human; conditions: HUVEC and fibroblast monocultures; 24 hours
# Protocol: In order to determine whether the fibrin E analogue peptides WTM33, WTM34, WTM35, WTM36, and WTM37 are cytotoxic when applied to the HUVEC and fibroblasts used in the Angiosys™ angiogenesis assay, these reagents were examined in two different cytotoxicity assays. To simplify performance of these assays and discriminate between fibroblasts and HUVEC, cells were grown in monocultures rather than together and then treated with the experimental reagents as described below.
# Cytotoxicity of the fibrin E peptide analogues was also determined by examining cell proliferation, using a commercial BrdU ELISA (Roche Molecular Biochemicals) performed according to the manufacturer's instructions. This assay quantifies DNA synthesis as a measure of cellular proliferation, as stimulation or inhibition of cell replication will require a concomitant change in the rate of DNA synthesis. Measurement of DNA synthesis is achieved by incubating proliferating cells in medium in which thymidine has been replaced with the pyrimidine analogue 5-bromo-2′-deoxyuridine (BrdU). Once incorporated into the cellular DNA, BrdU is measured by immunoassay. Briefly, HUVEC and fibroblasts were seeded as monocultures into 96 well plates at a density of 5×10^3 cells per well, to a final volume of 100 μl per well in endothelial cell culture medium. At the end of an initial culture period of 72 hours under standard conditions, while the cells were still proliferating, fibrin E analogue peptides were added to a range of final concentrations, as shown in the FIG. 8. Each treatment concentration of each peptide was administered to four replicate wells. Control cells received standard medium without test compounds. The cells were incubated for 24 hours with the test compounds, before 10 μl of stock BrdU solution (100 μM) was added to give a final concentration of 10 μM BrdU, and the cells were incubated for a further 2 hours. The test medium was then removed from the cells and replaced with 200 μl per well of Fixing/Denaturing solution, which was incubated on the cells for a further 30 minutes at room temperature. This was then replaced with 100 μl per well anti-BrdU-POD (mouse monoclonal clone BMG 6H8, Fab fragments conjugated to peroxidase) prepared as directed, which was left on the cells for a further 90 minutes at room temperature. The antibody conjugate was then removed from the wells by rinsing three times in 200 μl per well of washing buffer (PBS) before 100 μl well substrate solution (tetramethyl-benzidine) was added and incubated at room temperature until colour development was sufficient for photometric detection (approximately 15 minutes). Absorbance at 370 nm was measured on a multi-well plate ELISA plate reader (Dynatech), with a reference wavelength of 492 nm. Mean absorbance values from each group of four wells were calculated and expressed as a percentage±standard deviation of the mean value obtained from control wells incubated in the absence of fibrin E analogue peptide.
sequence,measurement,setting,value
LHADPDLGVLCPTGC [WTM34],effect on FDP-induced stimulation of cell proliferation,"[1]; low / lower concentrations of peptide, 5 μM FDPs",significant inhibition of the FDP induced stimulation
same,effect on FDP-induced stimulation of cell proliferation,"[1]; peptide at 4.633 μM and 9.265 μM, 5 μM FDPs",does not appear to affect the FDP-induced stimulation of cell proliferation
same,effect on FDP-induced stimulation of cell proliferation,[1]; peptide in the presence of FDPs (5 μM) / fibrin,some inhibitory effect
same,"cytotoxicity / cell proliferation, BrdU assay",[2],not cytotoxic; also recorded: no toxicity
